Experimental data published in PMC9693575, “Isopropyl Amino Acid Esters Ionic Liquids as Vehicles for Non-Steroidal Anti-Inflammatory Drugs in Potential Topical Drug Delivery Systems with Antimicrobial Activity” (International Journal of Molecular Sciences, 2022).

Tests used:
physchem = test: physchem
Excerpt: This study aims to compare the influence of amino acid structure on the physicochemical properties of NSAID salts with the isopropyl ester of amino acids.

[1] = DTG; cited from earlier work
Escherichia coli = test: Disc diffusion antimicrobial susceptibility test, Escherichia coli; format: cell-based; set-up: key to Inhibition diameter: -: no growth of the organism
Experimental: (§1) The plates were incubated for 24 h at 37 °C.

[2] = system: Staphylococcus epidermidis; test: Disc diffusion antimicrobial susceptibility test, Staphylococcus epidermidis; format: cell-based; set-up: key to Inhibition diameter: -: no growth of the organism
Experimental: as §1

Micrococcus Luteus = test: Disc diffusion antimicrobial susceptibility test, Micrococcus luteus; format: cell-based; set-up: key to Inhibition diameter: -: no growth of the organism
[3] = pKa / pKB by potentiometric acid-base titration and formation constant log(KS); settings: calculated from pKA of acid and pKB of base
Experimental: Determination of formation constant pKs
Zabrze, Poland). For the measurement of pKA acids, 0.1 M NaOH was used. In order to
ester hydrochloride, HCl aqueous solution, was added in an amount that allowed reach-
After that, an acid-base titration was made out by adding dropwise 5 mM

[4] = solution transferred to disc 25 mg cm^−3
[5] = solution transferred to disc 50 mg cm^−3
[6] = solution transferred to disc 100 mg cm^−3
[7] = solution transferred to disc 200 mg cm^−3
[8] = solution transferred to disc 400 mg cm^−3
[9] = solution transferred to disc 600 mg cm^−3
[10] = solution transferred to disc 1000 mg cm^−3
[11] = solution transferred to disc 800 mg cm^−3

CC(C)Cc1ccc(C(C)C(=O)O)cc1.CCC(C)C(N)C(=O)OC(C)C (mixture of isomers) [[L-IleOiPr][IBU]]
Solubility in Phosphate Buffer pH = 5.4 (physchem): 1.161 ± 0.002 g dm^−3
Solubility in Phosphate Buffer pH = 5.4, as active substance (physchem): 0.631 ± 0.002 gAS dm^−3
Solubility in Phosphate Buffer pH = 7.4 (physchem): 4.038 ± 0.021 g dm^−3
Solubility in Phosphate Buffer pH = 7.4, as active substance (physchem): 2.195 ± 0.021 gAS dm^−3
TDTGmax, maximum decomposition temperature [1]: 221.9 [50] °C
Inhibition diameter (Escherichia coli; [4]): -
Inhibition diameter (Escherichia coli; [5]): -
Inhibition diameter (Escherichia coli; [6]): -
Inhibition diameter (Escherichia coli; [7]): 6.3 ± 0.1 mm
Inhibition diameter (Escherichia coli; [8]): 6.4 ± 0.3 mm
Inhibition diameter (Escherichia coli; [9]): 7.1 ± 0.2 mm
Inhibition diameter (Escherichia coli; [10]): 7.8 ± 0.3 mm
Inhibition diameter [2, 4]: 7.5 ± 0.2 mm
Inhibition diameter [2, 5]: 9.5 ± 0.4 mm
Inhibition diameter [2, 6]: 14.4 ± 0.2 mm
Inhibition diameter [2, 7]: 15.4 ± 0.4 mm
Inhibition diameter [2, 8]: 17.0 ± 0.2 mm
Inhibition diameter [2, 9]: 17.5 ± 0.1 mm
Inhibition diameter [2, 11]: 18.0 ± 0.1 mm
Inhibition diameter [2, 10]: 19.3 ± 0.1 mm
Inhibition diameter (Micrococcus Luteus; [4]): 7.2 ± 0.2 mm
Inhibition diameter (Micrococcus Luteus; [5]): 7.6 ± 0.1 mm
Inhibition diameter (Micrococcus Luteus; [6]): 8.6 ± 0.1 mm
Inhibition diameter (Micrococcus Luteus; [7]): 9.4 ± 0.2 mm
Inhibition diameter (Micrococcus Luteus; [8]): 10.7 ± 0.1 mm
Inhibition diameter (Micrococcus Luteus; [9]): 11.2 ± 0.1 mm
Inhibition diameter (Micrococcus Luteus; [11]): 11.6 ± 0.1 mm
Inhibition diameter (Micrococcus Luteus; [10]): 12.3 ± 0.2 mm
Log(KS) formation constant [3]: 5.78

CC(C)Cc1ccc(C(C)C(=O)O)cc1.CSCCC(N)C(=O)OC(C)C (mixture of isomers) [[L-MetOiPr][IBU]]
Solubility in Phosphate Buffer pH = 5.4 (physchem): 0.932 ± 0.011 g dm^−3
Solubility in Phosphate Buffer pH = 5.4, as active substance (physchem): 0.483 ± 0.011 gAS dm^−3
Solubility in Phosphate Buffer pH = 7.4 (physchem): 3.376 ± 0.001 g dm^−3
Solubility in Phosphate Buffer pH = 7.4, as active substance (physchem): 1.752 ± 0.001 gAS dm^−3
TDTGmax, maximum decomposition temperature [1]: 209.9 [50] °C
Inhibition diameter (Escherichia coli; [4]): -
Inhibition diameter (Escherichia coli; [5]): 6.1 ± 0.1 mm
Inhibition diameter (Escherichia coli; [6]): 6.2 ± 0.1 mm
Inhibition diameter (Escherichia coli; [7]): 6.5 ± 0.2 mm
Inhibition diameter (Escherichia coli; [8]): 7.1 ± 0.3 mm
Inhibition diameter (Escherichia coli; [9]): 7.6 ± 0.2 mm
Inhibition diameter (Escherichia coli; [10]): 8.1 ± 0.1 mm
Inhibition diameter [2, 4]: -
Inhibition diameter [2, 5]: -
Inhibition diameter [2, 6]: 8.3 ± 0.1 mm
Inhibition diameter [2, 7]: 13.6 ± 0.2 mm
Inhibition diameter [2, 8]: 14.7 ± 0.2 mm
Inhibition diameter [2, 9]: 15.4 ± 0.2 mm
Inhibition diameter [2, 11]: 17.0 ± 0.2 mm
Inhibition diameter [2, 10]: 17.7 ± 0.3 mm
Inhibition diameter (Micrococcus Luteus; [4]): -
Inhibition diameter (Micrococcus Luteus; [5]): 7.3 ± 0.2 mm
Inhibition diameter (Micrococcus Luteus; [6]): 8.5 ± 0.2 mm
Inhibition diameter (Micrococcus Luteus; [7]): 10.4 ± 0.1 mm
Inhibition diameter (Micrococcus Luteus; [8]): 12.6 ± 0.1 mm
Inhibition diameter (Micrococcus Luteus; [9]): 14.1 ± 0.1 mm
Inhibition diameter (Micrococcus Luteus; [11]): 14.3 ± 0.1 mm
Inhibition diameter (Micrococcus Luteus; [10]): 14.6 ± 0.3 mm
Log(KS) formation constant [3]: 5.53
